Tests used:
Leishmania amazonensis = assay: Antiparasitic activity against intracellular Leishmania amazonensis amastigotes infected in mouse peritoneal macrophage measured after 72 hrs; type: functional, organism-based
[1] = Cytotoxicity against Balb/c mouse peritoneal macrophage assessed as cell viability measured after 72 hrs by alamar blue assay; type: tissue-based; settings: peritoneal macrophages
[2] = Selectivity index, ratio of CC50 for mouse peritoneal macrophages to IC50 for Leishmania amazonensis amastigotes infected in BALB/c mouse peritoneal macrophages; type: toxicity; settings: read-out: Ratio CC50/IC50
Trypanosoma cruzi = assay: Antiparasitic activity against intracellular Trypanosoma cruzi amastigotes infected in mouse peritoneal macrophage measured after 72 hrs; type: functional, organism-based
[3] = Selectivity index, ratio of CC50 for mouse peritoneal macrophages to IC50 for Trypanosoma cruzi amastigotes infected in BALB/c mouse peritoneal macrophages; type: toxicity; settings: read-out: Ratio CC50/IC50

COc1cc(O)c(I)c2c1[C@@H](/C=C/c1ccc(O)cc1)[C@@H]1[C@@H](c3ccccc3)Oc3c(I)c(O)cc(OC)c3[C@@H]1O2
IC50 (Leishmania amazonensis): 7.8 µM
CC50 at 72 h [1]: > 100 µM
selectivity ratio [2]: > 13
IC50 (Trypanosoma cruzi): 1.8 µM
selectivity ratio [3]: > 56

COc1ccc(/C=C/[C@@H]2c3c(OC)cc(O)c(Cl)c3O[C@H]3c4c(OC)cc(O)cc4O[C@H](c4ccccc4)[C@@H]23)cc1
IC50 (Leishmania amazonensis): > 10 µM
CC50 at 72 h [1]: > 100 µM
IC50 (Trypanosoma cruzi): 1.4 µM
selectivity ratio [3]: > 71

COc1cc(O)c(Cl)c2c1[C@@H](/C=C/c1ccccc1)[C@@H]1[C@@H](c3ccccc3)Oc3cc(O)cc(OC)c3[C@@H]1O2
IC50 (Leishmania amazonensis): 1.2 µM
CC50 at 72 h [1]: > 100 µM
selectivity ratio [2]: > 83
IC50 (Trypanosoma cruzi): 1.4 µM
selectivity ratio [3]: > 71

COc1cc(O)c(Br)c2c1[C@@H](/C=C/c1ccc(O)cc1)[C@@H]1[C@@H](c3ccccc3)Oc3c(Br)c(O)cc(OC)c3[C@@H]1O2
IC50 (Leishmania amazonensis): 2.5 µM
CC50 at 72 h [1]: > 100 µM
selectivity ratio [2]: > 40
IC50 (Trypanosoma cruzi): 8.3 µM
selectivity ratio [3]: > 12

COc1ccc(/C=C/[C@@H]2c3c(OC)c(Br)c(O)c(Br)c3O[C@H]3c4c(OC)cc(O)c(Br)c4O[C@H](c4ccccc4)[C@@H]23)cc1
IC50 (Leishmania amazonensis): 4.5 µM
CC50 at 72 h [1]: > 100 µM
selectivity ratio [2]: > 22
IC50 (Trypanosoma cruzi): 3.8 µM
selectivity ratio [3]: > 26

COc1ccc(/C=C/[C@@H]2c3c(OC)cc(O)c(I)c3O[C@H]3c4c(OC)cc(O)c(I)c4O[C@H](c4ccccc4)[C@@H]23)cc1
IC50 (Leishmania amazonensis): 4.7 µM
CC50 at 72 h [1]: > 100 µM
selectivity ratio [2]: > 21
IC50 (Trypanosoma cruzi): 2.5 µM
selectivity ratio [3]: > 40

COc1ccc(/C=C/[C@@H]2c3c(OC)cc(O)c(Cl)c3O[C@H]3c4c(OC)cc(O)c(Cl)c4O[C@H](c4ccccc4)[C@@H]23)cc1
IC50 (Leishmania amazonensis): 3.4 µM
CC50 at 72 h [1]: > 100 µM
selectivity ratio [2]: > 29
IC50 (Trypanosoma cruzi): 2.2 µM
selectivity ratio [3]: > 45

O=C(Cn1ccnc1[N+](=O)[O-])NCc1ccccc1 [BENZNIDAZOLE]
CC50 at 72 h [1]: > 100 µM
IC50 (Trypanosoma cruzi): 1.4 µM
selectivity ratio [3]: > 35

COc1ccc(/C=C/[C@@H]2c3c(OC)cc(O)c(Br)c3O[C@H]3c4c(OC)cc(O)c(Br)c4O[C@H](c4ccccc4)[C@@H]23)cc1
IC50 (Leishmania amazonensis): 3.6 µM
CC50 at 72 h [1]: > 100 µM
selectivity ratio [2]: > 28
IC50 (Trypanosoma cruzi): 4.7 µM
selectivity ratio [3]: > 21

COc1cc(O)c(Br)c2c1[C@@H](/C=C/c1ccccc1)[C@@H]1[C@@H](c3ccccc3)Oc3c(Br)c(O)cc(OC)c3[C@@H]1O2
IC50 (Leishmania amazonensis): 1.7 µM
CC50 at 72 h [1]: > 100 µM
selectivity ratio [2]: > 59
IC50 (Trypanosoma cruzi): 1.6 µM
selectivity ratio [3]: > 63

COc1cc(O)c(I)c2c1[C@@H](/C=C/c1ccccc1)[C@@H]1[C@@H](c3ccccc3)Oc3cc(O)cc(OC)c3[C@@H]1O2
IC50 (Leishmania amazonensis): > 10 µM
CC50 at 72 h [1]: > 100 µM
IC50 (Trypanosoma cruzi): 1.9 µM
selectivity ratio [3]: > 53

COc1cc(O)cc2c1[C@@H](/C=C/c1ccccc1)[C@@H]1[C@@H](c3ccccc3)Oc3cc(O)cc(OC)c3[C@@H]1O2
IC50 (Leishmania amazonensis): 6.3 µM
CC50 at 72 h [1]: > 20 µM
selectivity ratio [2]: 3.2

COc1cc(O)c(Br)c2c1[C@@H]1Oc3c(Br)c(O)c(Br)c(OC)c3[C@@H](/C=C/c3ccccc3)[C@@H]1[C@@H](c1ccccc1)O2
IC50 (Leishmania amazonensis): 1 µM
CC50 at 72 h [1]: > 100 µM
selectivity ratio [2]: > 100
IC50 (Trypanosoma cruzi): 2.9 µM
selectivity ratio [3]: > 34

COc1ccc(/C=C/[C@@H]2c3c(OC)cc(O)cc3O[C@H]3c4c(OC)cc(O)cc4O[C@H](c4ccccc4)[C@@H]23)cc1
IC50 (Leishmania amazonensis): 2.2 µM
CC50 at 72 h [1]: > 20 µM
selectivity ratio [2]: 9.1

COc1cc(O)c(Br)c2c1[C@@H]1Oc3c(Br)c(O)c(Br)c(OC)c3[C@@H](/C=C/c3ccc(O)cc3)[C@@H]1[C@@H](c1ccccc1)O2
IC50 (Leishmania amazonensis): 6.5 µM
CC50 at 72 h [1]: > 100 µM
selectivity ratio [2]: > 15
IC50 (Trypanosoma cruzi): > 10 µM

COc1ccc(/C=C/[C@@H]2c3c(OC)cc(O)c(Br)c3O[C@H]3c4c(OC)cc(O)cc4O[C@H](c4ccccc4)[C@@H]23)cc1
IC50 (Leishmania amazonensis): 3.3 µM
CC50 at 72 h [1]: > 100 µM
selectivity ratio [2]: > 30
IC50 (Trypanosoma cruzi): 3.6 µM
selectivity ratio [3]: > 28

COc1cc(O)c(I)c2c1[C@@H](/C=C/c1ccccc1)[C@@H]1[C@@H](c3ccccc3)Oc3c(I)c(O)cc(OC)c3[C@@H]1O2
IC50 (Leishmania amazonensis): 3.9 µM
CC50 at 72 h [1]: > 100 µM
selectivity ratio [2]: > 26
IC50 (Trypanosoma cruzi): 6.5 µM
selectivity ratio [3]: > 15

C[C@@H]1[C@H](O)[C@@H](C)/C=C/C=C/C=C/C=C/C=C/C=C/C=C/[C@H](O[C@@H]2O[C@H](C)[C@@H](O)[C@H](N)[C@@H]2O)C[C@@H]2O[C@](O)(C[C@@H](O)C[C@@H](O)[C@H](O)CC[C@@H](O)C[C@@H](O)CC(=O)O[C@H]1C)C[C@H](O)[C@H]2C(=O)O [AMPHOTERICIN B]
IC50 (Leishmania amazonensis): 0.2 µM
CC50 at 72 h [1]: > 50 µM
selectivity ratio [2]: > 217

COc1cc(O)cc2c1[C@@H](/C=C/c1ccc(O)cc1)[C@@H]1[C@@H](c3ccccc3)Oc3cc(O)cc(OC)c3[C@@H]1O2
IC50 (Leishmania amazonensis): > 20 µM
CC50 at 72 h [1]: > 20 µM

COc1ccc(/C=C/[C@@H]2c3c(OC)cc(O)cc3O[C@H]3c4c(OC)cc(O)c(I)c4O[C@H](c4ccccc4)[C@@H]23)cc1
IC50 (Leishmania amazonensis): 5.4 µM
CC50 at 72 h [1]: > 100 µM
selectivity ratio [2]: > 19
IC50 (Trypanosoma cruzi): 1.6 µM
selectivity ratio [3]: > 63

— ChEMBL document CHEMBL4699490, “Production of Highly Active Antiparasitic Compounds from the Controlled Halogenation of the Arrabidaea brachypoda Crude Plant Extract” (J Nat Prod, 2020)
